Reference: PMC8147293, “Library of Selenocyanate and Diselenide Derivatives as In Vivo Antichagasic Compounds Targeting Trypanosoma cruzi Mitochondrion” (Pharmaceuticals, 2021)

Columns and labels:
[1] = format: in vivo; conditions: BALB/c mice, 20 mg/kg per day for 5 days
Procedure: Finally, biochemical analyses were performed to assess the toxicity associated to the treatment of compound 8. Kidney, heart and liver biochemical markers were measured, including values from uninfected and BZN-treated mice (Table S2). […] The low toxicity allows compound 8 to be tested at higher doses, establishing an improved treatment schedule based on pharmacokinetics in order to reach a total parasite clearance.
(§1) All in vivo assays for the evaluation of compounds in the acute and chronic CD (Scheme 1)—monitoring of parasitemia, immunosuppression, PCR [59, 60], ELISA [56], and clinical analysis [56]—were performed as previously described. PCR was based on the Spliced Leader (SL) intergenic region sequence of T. cruzi (for detailed description, see literature reported previously).

Trypanosoma cruzi [2] = assay: Anti-T. cruzi IgG (ELISA) and splenomegaly in treated BALB/c mice; format: in vivo
Procedure: Otherwise, the immune status of the mice was evaluated—through the titer of total anti-T. cruzi IgG and the splenomegaly (Figure S1)—since it is a characteristic linked to the parasite load and the effectiveness ascribed to the potential candidates. […].
as §1
Figure S1. A) Anti-Trypanosoma cruzi immunoglobulin G levels, expressed in absorbance at 492 nm, at different days post-infection (dpi) for each group of mice treated during the acute and chronic phases of Chagas disease: control (untreated), benznidazole (BZN), 8, 10 and 15. Blank and uninfected mice are also […]
included. […] Values are the means of three mice ± standard deviation. (IS) immunosuppression. * Significant differences between untreated and treated mice for α =
0.05. B) Weight percentage of spleens in the chronic Chagas disease for each group of mice treated during the acute and chronic phases of the disease: control (untreated), benznidazole (BZN), 8, 10 and 15. Values are the means of three mice ± standard deviation. In brackets: reduction of splenomegaly in comparison to […]
(1 picture or pasted object on this page, not shown here)

[3] = molecular target: T1, human erythrocytes CuZn-SOD (Homo sapiens, UniProt P00441); assay: SOD enzymatic inhibition, CuZn-SOD; format: biochemical; conditions: 100 to 0.1 µM, read-out: CuZn-SOD IC50 (in brackets)
T1 construct: commercial Cu/Zn-SOD from human erythrocytes (Sigma-Aldrich); purchased Sigma-Aldrich; host or cells: human erythrocytes
Procedure: Excreted Fe-SOD protein—obtained and quantified as previously described [64]—and commercial Cu/Zn-SOD from human erythrocytes (Sigma-Aldrich) were exposed to the tested compounds at a concentration range from 100 to 0.1 µM to determine in vitro activities using the method previously described.

Trypanosoma cruzi [4] = assay: PCR of seven organs/tissues of treated BALB/c mice (Spliced Leader sequence); format: in vivo
Procedure: To assess the efficacy of potential candidates by confirming the absence of infection in the target locations, PCR was carried out at the end of the in vivo timeline (Figure 2C). PCR was positive in seven organs/tissues for the untreated (control) mice groups in both phases, showing the presence of the typical nested amastigotes of the chronic CD.
Infection was carried out by intraperitoneal inoculation of 5 × 10^5 BTs of T. cruzi per mouse in 0.2 mL PBS [56]. The mice were treated by oral route (~200 µL) once daily for 5 consecutive days. The treatment for mice treated in the acute and chronic phases began when the infection was confirmed (9th day post-infection (dpi)) and was established that the animals had entered the chronic phase (100th dpi), respectively.
The mice were divided into six groups (n = 3 per group): 0, negative control group (uninfected and untreated mice); I, positive control group (infected and untreated mice); II, BZN group (mice infected and treated with BZN); III, 8 group (mice infected and treated with 8); IV, 10 group (mice infected and treated with 10); V, 15 group (mice infected and treated with 15). The tested compounds and BZN were prepared at 2 mg·mL^−1 in an aqueous suspension vehicle containing 5% (v/v) DMSO and 0.5% (w/v) hydroxypropyl methylcellulose, as previously reported. Therefore, doses of 20 mg·kg^−1 per day were administered for 5 consecutive days, and vehicle only was administered in the negative and positive control groups.
as §1
Figure 2 (A) Parasitemia profiles of each group of mice infected with Trypanosoma cruzi and treated during the acute Chagas disease over a period of 55 days: control (untreated), benznidazole (BZN), 8, 10 and 15. Treatment days are represented in grey. […]. (B) Parasitemia reactivation by fresh blood in the chronic Chagas disease after the immunosuppression cycles for each group of mice treated during the acute and chronic phases of the disease: control (untreated), benznidazole (BZN), 8, 10, and 15. […]. (C) PCR analysis of seven organs/tissues with the Trypanosoma cruzi Spliced Leader (SL) intergenic region sequence in the chronic Chagas disease for each group of mice treated during the acute and chronic phases of the disease: (a) control (untreated), (b) benznidazole, (c) 8, (d) 10, and (e) 15.

T1 sequence (P00441 whole entry): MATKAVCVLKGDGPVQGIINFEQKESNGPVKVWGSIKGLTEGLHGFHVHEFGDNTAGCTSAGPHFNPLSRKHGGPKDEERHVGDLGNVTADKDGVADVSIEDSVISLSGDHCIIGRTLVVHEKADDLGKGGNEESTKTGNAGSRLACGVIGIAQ

With `FC(F)(F)c1ccc(C[Se][Se]Cc2ccc(C(F)(F)F)cc2)cc1` [compound 8] the “death and body mass loss after treatment” value [1] was “none of the mice died nor lost more than 10% body mass”, the “kidney, heart and liver biochemical markers” value [1] was “disturbed 2 days after treatment” and the “IgG levels in the acute treatment” value (Trypanosoma cruzi [2]; from the beginning to the end of the in vivo timeline) was “very low IgG levels”. The “total anti-T. cruzi IgG levels and splenomegaly” value (Trypanosoma cruzi [2]; treated BALB/c mice versus untreated, excluding IgG levels of chronic CD) was “significant reduction”, the IC50 [3] was > 100 µM and the “negative PCR (parasite-free locations)” value (Trypanosoma cruzi [4]; mice treated in acute CD) was 3/7. For the same compound, the “negative PCR (parasite-free locations)” value (Trypanosoma cruzi [4]; mice treated in chronic CD) was 4/7.
